This note sets out measurements from patent US9440950B2, “Arginine methyltransferase inhibitors and uses thereof” (Epizyme, Inc., priority 2013, dated 2016).

In the experiment the test system is Mono-Methyl Arginine in RKO cells. As to the kind of experiment: RKO Methylation Assay (In Cell Western). It is filed as cell-based. The following applies: Homo sapiens, 72 hours, percent activation. The source says: RKO Methylation Assay RKO adherent cells were purchased from ATCC (American Type Culture Collection), Manassas, Va., USA. DMEM/Glutamax medium, penicillin-streptomycin, heat inactivated fetal bovine serum, 0.05% trypsin and D-PBS were purchased from Life Technologies, Grand Island, N.Y., USA. Odyssey blocking buffer, 800CW goat anti-rabbit IgG (H+L) antibody, and Licor Odyssey infrared scanner were purchased from Licor Biosciences, Lincoln, Nebr., USA. Mono-methyl arginine antibody was purchased from Cell Signaling Technology, Danvers, Mass., USA. Methanol was purchased from VWR, Franklin, Mass., USA. 10% Tween 20 was purchased from KPL, Inc., Gaithersburg, Md., USA. DRAQ5 was purchased from Biostatus Limited, Leicestershire, UK. RKO adherent cells were maintained in growth medium (DMEM/Glutamax medium supplemented with 10% v/v heat inactivated fetal bovine serum and 100 units/mL penicillin-streptomycin) and cultured at 37° C. under 5% CO2. Cell Treatment, In Cell Western (ICW) for Detection of Mono-Methyl Arginine and DNA Content. RKO cells were seeded in assay medium at a concentration of 20,000 cells per mL to a poly-D-lysine coated 384 well culture plate (BD Biosciences 356697) with 50 μL per well. Compound (100 nL) from a 96-well source plate was added directly to 384 well cell plate. Plates were incubated at 37° C., 5% CO2 for 72 hours. After three days of incubation, plates were brought to room temperature outside of the incubator for ten minutes and blotted on paper towels to remove cell media. 50 μL of ice cold 100% methanol was added directly to each well and incubated for 30 min at room temperature. After 30 min, plates were transferred to a Biotek EL406 plate washer and washed 2 times with 100 μL per well of wash buffer (IX PBS). Next 60 μL per well of Odyssey blocking buffer (Odyssey Buffer with 0.1% Tween 20 (v/v)) were added to each plate and incubated 1 hour at room temperature. Blocking buffer was removed and 20 μL per well of primary antibody was added (mono-methyl arginine diluted 1:200 in Odyssey buffer with 0.1% Tween 20 (v/v)) and plates were incubated overnight (16 hours) at 4° C. Plates were washed 5 times with 100 μL per well of wash buffer. Next 20 μL per well of secondary antibody was added (1:200 800CW goat anti-rabbit IgG (H+L) antibody, 1:1000 DRAQ5 (Biostatus limited) in Odyssey buffer with 0.1% Tween 20 (v/v)) and incubated for 1 hour at room temperature. The plates were washed 5 times with 100 μL per well wash buffer then 2 times with 100 μL per well of water. Plates were allowed to dry at room temperature then imaged on the Licor Odyssey machine which measures integrated intensity at 700 nm and 800 nm wavelengths. Both 700 and 800 channels were scanned. Calculations: First, the ratio for each well was determined by: Each plate included fourteen control wells of DMSO only treatment (minimum activation) as well as fourteen control wells for maximum activation treated with 20 μM of a reference compound. The average of the ratio values for each control type was calculated and used to determine the percent activation for each test well in the plate. Reference compound was serially diluted three-fold in DMSO for a total of nine test concentrations, beginning at 20 μM. Percent activation was determined and EC30 curves were generated using triplicate wells per concentration of compound.

As for `COc1ncccc1-c1n[nH]cc1CN(C)CCN` [Compound 15], the EC30 was more than 12 µM.
`COc1cc(-c2n[nH]cc2CN(C)CCN)ccn1` [Compound 11] showed an EC30 of 3.01 to 12 µM.
The same measure for `CCN(CC(C)C)c1ccc(-c2n[nH]cc2CN(C)CCNC)cn1` [Compound 36]: 3.01 to 12 µM; for `CNCCN(C)Cc1c[nH]nc1-c1ccc(N(CC(C)C)CC(C)C)nc1` [Compound 31]: more than 12 µM; for `COc1ccncc1-c1n[nH]cc1CN(C)CCN` [Compound 16]: more than 12 µM.
For the compound `CN(CCN)Cc1c[nH]nc1-c1cncc(C#N)c1` [Compound 18], the EC30 is more than 12 µM.
In the case of `CN(CCN)Cc1c[nH]nc1-c1cncc(F)c1` [Compound 7], the EC30 is more than 12 µM.
For `COc1ncc(Cl)cc1-c1n[nH]cc1CN(C)CCN` [Compound 14], the EC30 is more than 12 µM.
In turn, `CC(C)Oc1ccc(-c2n[nH]cc2CN(C)CCN)cn1` [Compound 22] came in with an EC30 of less than 3 µM.
Consider `CNCCN(C)Cc1c[nH]nc1-c1ccc(N(C)CCC(C)C)nc1` [Compound 30], for which the concentration for an effect of 30% (EC30) is 3.01 to 12 µM.
For `CN(CCN)Cc1c[nH]nc1-c1ccc(C(F)(F)F)nc1` [Compound 13, N^1-methyl-N^1-((3-(6-(trifluoromethyl)pyridin-3-yl)-1H-pyrazol-4-yl)methyl)ethane-1,2-diamine] the value was less than 3 µM.
As for `Cc1ccncc1-c1n[nH]cc1CN(C)CCN` [Compound 17], the EC30 is more than 12 µM.
For `CC(C)CNc1ccc(-c2n[nH]cc2CN(C)CCN)cn1` [Compound 26] the value was more than 12 µM.
In turn, `CN(CCN)Cc1c[nH]nc1-c1ccc(N2CCOCC2)nc1` [Compound 20] gave an EC30 of 3.01 to 12 µM.
The same measure for `CN(CCN)Cc1c[nH]nc1-c1cncc(Cl)c1` [Compound 19]: 3.01 to 12 µM; for `CN(CCN)Cc1c[nH]nc1-c1ccc(NCc2ccccc2)nc1` [Compound 25]: 3.01 to 12 µM.
In the case of `COc1ccc(-c2n[nH]cc2CN(C)CCN)cn1` [Compound 5], the EC30 was more than 12 µM.
On to `CNCCN(C)Cc1c[nH]nc1-c1ccc(N(C)CC(C)C)nc1` [Compound 32, N^1-((3-(6-(isobutyl(methyl)amino)pyridin-3-yl)-1H-pyrazol-4-yl)methyl)-N^1,N^2-dimethylethane-1,2-diamine], for which the EC30 was less than 3 µM.
As to `COc1cc(-c2n[nH]cc2CN(C)CCN)c(Cl)cn1` [Compound 12], the EC30 is more than 12 µM.
Consider `CN(CCN)Cc1c[nH]nc1-c1ccncc1` [Compound 9], for which the EC30 was in the range of 3.01 to 12 µM.
Compound `CC(C)CN(C)c1ccc(-c2n[nH]cc2CN(C)CCN)cn1` [Compound 21] showed an EC30 of 3.01 to 12 µM.
In turn, `CN(CCN)Cc1c[nH]nc1-c1ccc(N(C)Cc2ccccc2)nc1` [Compound 23] came in with an EC30 of 3.01 to 12 µM.
Compound `CCN(CCC(C)C)c1ccc(-c2n[nH]cc2CN(C)CCNC)cn1` [Compound 34, N^1-((3-(6-(ethyl(isopentyl)amino)pyridin-3-yl)-1H-pyrazol-4-yl)methyl)-N^1,N^2-dimethylethane-1,2-diamine] gave an EC30 of less than 3 µM.
In the case of `CNCCN(C)Cc1c[nH]nc1-c1ccc(N(C)C(C)C)nc1` [Compound 33, N^1-((3-(6-(isopropyl(methyl)amino)pyridin-3-yl)-1H-pyrazol-4-yl)methyl)-N^1,N^2-dimethylethane-1,2-diamine], the EC30 is less than 3 µM.
The compound `CCN(CC)c1ccc(-c2n[nH]cc2CN(C)CCN)cn1` [Compound 24] showed an EC30 of more than 12 µM.
The compound `CNCCN(C)Cc1c[nH]nc1-c1ccc(OCC(C)C)nc1` [Compound 35, N^1-((3-(6-iso-butoxypyridin-3-yl)-1H-pyrazol-4-yl)methyl)-N^1,N^2-dimethylethane-1,2-diamine] returned an EC30 of less than 3 µM.

As a reminder, the EC30 is the concentration needed for an effect of 30%. A higher EC30 goes with a need for much substance.
